According to patent US20150258062A1, “COMPOSITIONS AND METHODS FOR TREATMENT OF RENAL DISEASE” (priority 2009, published 2015):

Legend:
[1] = test system: Inward sodium current; conditions: Table 1; cited from earlier work
[2] = test system: Inward Calcium current; conditions: Table 1; cited from earlier work
[3] = test system: Outward potassium current; conditions: Table 1; cited from earlier work
[4] = Clinic case studies: serum laboratory profile (uric acid, potassium, creatinine, urea nitrogen); assay type: in vivo, human
[5] = Clinic case studies: blood pressure, pulse, body weight, edema, GFR, EKG; assay type: in vivo, human
[6] = test system: slow component of the delayed rectifier K+ current (IKs); conditions: cited from earlier work
[7] = test system: ventricular repolarization, QT interval and Torsade; conditions: cited from earlier work
[8] = test system: non-diabetic patients already receiving dual therapy with both an ACEI plus an ARB agent; conditions: after 1 year; non-diabetic patients on ACEI plus ARB; independent of BP changes; cited from earlier work

Compound	action on inward sodium current [1]	action on inward calcium current [2]	action on outward potassium current [3]	uric acid ([4]; Case 1, Day 25, indapamide 2.5 mg with losartan 50 mg, terazosin 2 mg) [mg/dL]	creatinine ([4]; Case 1, Day 25, indapamide 2.5 mg with losartan 50 mg, terazosin 2 mg, Day 0 value 2.3) [mg/dL]	urea nitrogen ([4]; Case 1, Day 25, indapamide 2.5 mg with losartan 50 mg, terazosin 2 mg, Day 0 value 46) [mg/dL]	serum uric acid ([4]; Case 4, indapamide 1.25 mg per day with losartan, amlodipine, after 9 months, baseline 7.5) [mg/dL]	serum potassium ([4]; Example 3 Case 1, stage 4 CKD, Day 25, on indapamide 2.5 mg, losartan 50 mg, terazosin 2 mg since Day 13, Day 0 value 5.2) [mmol/L]	serum creatinine and urea nitrogen ([4]; Example 3 Case 4, diabetic nephropathy, losartan 100 mg, amlodipine 5 mg, indapamide 1.25 mg per day, after 9 months)	pedal edema ([5]; Case 1, Day 34, indapamide 2.5 mg with losartan 50 mg, terazosin 2 mg, before spironolactone)	blood pressure ([5]; Case 1, Day 34, indapamide 2.5 mg with losartan, terazosin, Day 13 value 142/82)	blood pressure ([5]; Example 3 Case 2, diabetic nephropathy, 6 months, 1 month after indapamide 1.25 mg, diltiazem 300 mg started and losartan raised to 100 mg, before 168/108)	effect on IKs [6]	QT dispersion ([7]; Table 1)	QT interval ([7]; Table 1)	Torsade ([7]; Table 1)	QT interval and torsade de pointes in patients ([7]; in the presence of normal electrolytes (Letsas, Alexanian et al. 2006))	additive reduction of proteinuria [8] [%]
C[C@]12CCC(=O)C=C1CC[C@@H]1[C@@H]2[C@@H](O)C[C@]2(C=O)[C@@H](C(=O)CO)CC[C@@H]12 [Aldosterone]	Incresases	Increases	No effect	–	–	–	–	–	–	–	–	–	–	–	–	–	–	–
CC1Cc2ccccc2N1NC(=O)c1ccc(Cl)c(S(N)(=O)=O)c1 (stereo not drawn) [indapamide, 4-chloro-N-(2-methyl-2,3-dihydroindol-1-yl)-3-sulfamoyl-benzamide]	No effect	No effect	Slows	7.5	2.6	36	7.0	4.1	unchanged	decreased	150/90	145/93	blocks	increased	prolongs	prediposes	QT interval prolongation and torsade de pointes	–
CC(=O)S[C@@H]1CC2=CC(=O)CC[C@]2(C)[C@H]2CC[C@@]3(C)[C@@H](CC[C@@]34CCC(=O)O4)[C@H]12 [spironolactone]	–	–	–	–	–	–	–	–	–	–	–	–	–	–	–	–	–	58
